Measured values reported in US9988400B2 (Genentech, Inc., priority 2013, dated 2018).

Biological target: T1, HEK cells stably transfected with tetracycline inducible hNR1 and hNR2A (Homo sapiens, UniProt Q05586+Q12879)
T1 construct: expressed in transfected cells; host or cells: HEK cells, stably transfected, tetracycline/doxycycline inducible
Assay: Assay 1: Cell-Based Assay, cytosolic calcium response to positive allosteric modulators (with 30 μM glycine and 300 nM L-glutamate, EC30)
Conditions: for EC50: cytosolic calcium response, with 30 μM glycine and 300 nM L-glutamate (EC30), — = no plateau was reached; for Max %: responses scaled relative to 100 μM L-glutamate maximal response (100%) and 0 μM L-glutamate (0%)
Outline: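 Cells induced 24 h with 7.5 μg mL^−1 doxycycline plus 500 μM (+)-ketamine, loaded 60 min at 37 °C with calcium dye in Mg-free HBSS (1.8 mM Ca, probenecid, 10 μM (+)-ketamine, pH 7.15). Peak RFU over 5 min after compound addition, scaled to 100 μM L-glutamate (100%) and 0 μM (0%); four-parameter Hill fit for EC50, max % if no plateau.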

T1 sequence (Q12879 23-1464, other chains not shown): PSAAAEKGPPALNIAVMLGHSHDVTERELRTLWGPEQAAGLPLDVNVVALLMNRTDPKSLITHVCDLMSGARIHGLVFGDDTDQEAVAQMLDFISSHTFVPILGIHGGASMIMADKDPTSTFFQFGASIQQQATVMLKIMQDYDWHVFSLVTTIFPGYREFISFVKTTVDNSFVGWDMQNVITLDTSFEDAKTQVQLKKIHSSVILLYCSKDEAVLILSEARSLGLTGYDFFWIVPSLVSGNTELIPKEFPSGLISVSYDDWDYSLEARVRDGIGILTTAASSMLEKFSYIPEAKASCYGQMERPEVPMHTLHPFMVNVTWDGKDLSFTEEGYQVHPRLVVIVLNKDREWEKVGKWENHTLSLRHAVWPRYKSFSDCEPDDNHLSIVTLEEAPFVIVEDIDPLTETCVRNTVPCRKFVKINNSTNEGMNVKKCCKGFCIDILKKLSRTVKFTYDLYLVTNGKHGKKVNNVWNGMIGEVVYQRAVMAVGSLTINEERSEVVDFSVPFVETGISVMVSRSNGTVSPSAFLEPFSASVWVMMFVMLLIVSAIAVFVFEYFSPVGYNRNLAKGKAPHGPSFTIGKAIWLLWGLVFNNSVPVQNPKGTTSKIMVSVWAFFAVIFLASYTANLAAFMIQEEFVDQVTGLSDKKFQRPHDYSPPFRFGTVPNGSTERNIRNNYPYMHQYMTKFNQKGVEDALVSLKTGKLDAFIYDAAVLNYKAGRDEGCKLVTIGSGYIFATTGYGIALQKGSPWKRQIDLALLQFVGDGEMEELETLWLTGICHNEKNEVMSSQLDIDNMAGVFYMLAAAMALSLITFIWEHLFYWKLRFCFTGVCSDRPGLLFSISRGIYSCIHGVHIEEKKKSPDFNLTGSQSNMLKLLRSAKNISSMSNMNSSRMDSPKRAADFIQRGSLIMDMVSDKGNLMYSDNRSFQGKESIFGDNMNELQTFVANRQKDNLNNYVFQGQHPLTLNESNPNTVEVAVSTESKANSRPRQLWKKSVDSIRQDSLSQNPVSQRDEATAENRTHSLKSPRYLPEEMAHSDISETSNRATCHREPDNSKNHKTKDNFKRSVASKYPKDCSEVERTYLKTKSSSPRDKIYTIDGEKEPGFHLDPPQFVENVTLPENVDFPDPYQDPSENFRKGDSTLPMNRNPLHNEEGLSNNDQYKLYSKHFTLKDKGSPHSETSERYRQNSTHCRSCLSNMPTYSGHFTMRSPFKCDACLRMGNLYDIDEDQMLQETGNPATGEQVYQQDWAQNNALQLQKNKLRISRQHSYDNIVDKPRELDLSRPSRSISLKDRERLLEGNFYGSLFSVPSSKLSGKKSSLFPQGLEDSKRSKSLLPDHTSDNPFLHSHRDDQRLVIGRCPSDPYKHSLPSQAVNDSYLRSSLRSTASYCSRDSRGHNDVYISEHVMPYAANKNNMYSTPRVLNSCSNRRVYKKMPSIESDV

Structure (SMILES) | EC50 (Table 2) [nM] | Max % (Table 2) [%] | EC50 (Table 3) [nM]
CCN(Cc1cc(=O)n2c3c(sc2n1)CCCC3)c1ccc(F)cc1 [Example 8.2, 2-[(N-ethyl-4-fluoro-anilino)methyl]-6,7,8,9-tetrahydropyrimido[2,1-b][1,3]benzothiazol-4-one] | 7200 | 122 | 
Cc1sc2nc(COc3ccc(F)c(F)c3)cc(=O)n2c1[C@@H]1C[C@H]1CO (relative stereo) [Example 4.7, 7-(3,4-Difluorophenoxymethyl)-3-[trans-2-(hydroxymethyl)cyclopropyl]-2-methyl-5H-[1,3]thiazolo[3,2-a]pyrimidin-5-one] | 5800 | 134 | 
Cc1sc2nc(Cn3nc(C(F)(F)F)cc3Cl)cc(=O)n2c1C(C)C#N (centres unmarked) [Example 251A] |  |  | 2620
Cc1sc2nc(Cn3ccc(C(F)(F)F)n3)cc(=O)n2c1[C@@H]1C[C@H]1CO (relative stereo) [Example 15.5, 3-(trans-2-(hydroxymethyl)cyclopropyl)-2-methyl-7-((3-(trifluoromethyl)-1H-pyrazol-1-yl)methyl)-5H-thiazolo[3,2-a]pyrimidin-5-one] | 1700 | 131 | 
CNC(=O)c1c(C)sc2nc(Cc3cccc(Cl)c3F)cc(=O)n12 [Example 21.14, 7-[(3-chloro-2-fluoro-phenyl)methyl]-N,2-dimethyl-5-oxo-thiazolo[3,2-a]pyrimidine-3-carboxamide] | 11000 | 112 | 
CCNC(=O)c1c(C)sc2nc(Cn3nc(C(F)(F)F)cc3C3CC3)cc(=O)n12 [compound 76, 7-[[5-cyclopropyl-3-(trifluoromethyl)pyrazol-1-yl]methyl]-N-ethyl-2-methyl-5-oxo-thiazolo[3,2-a]pyrimidine-3-carboxamide] |  |  | 436
Cc1sc2nc(Cn3nc(C(F)(F)F)cc3Cl)cc(=O)n2c1/C=C/C(N)=O [compound 264, (E)-3-[7-[[5-chloro-3-(trifluoromethyl)pyrazol-1-yl]methyl]-2-methyl-5-oxo-thiazolo[3,2-a]pyrimidin-3-yl]prop-2-enamide] |  |  | 5090
CCNC(=O)c1c(C)sc2nc(Cc3cccc(C#N)c3)cc(=O)n12 [Example 21.8, 7-(3-cyanobenzyl)-N-ethyl-2-methyl-5-oxo-5H-thiazolo[3,2-a]pyrimidine-3-carboxamide] |  | 99.3 | 
Cc1sc2nc(Cc3cccc(C#N)c3F)cc(=O)n2c1C1CC1C#N (centres unmarked) [Example 23.2, 3-((3-(2-cyanocyclopropyl)-2-methyl-5-oxo-5H-thiazolo[3,2-a]pyrimidin-7-yl)methyl)-2-fluorobenzonitrile] | 2600 |  | 
Cc1sc2nc(Cc3cccc(C#N)c3F)cc(=O)n2c1[C@@H]1C[C@H]1CO (relative stereo) [Example 20.3, 2-fluoro-3-((3-(trans-2-(hydroxymethyl)cyclopropyl)-2-methyl-5-oxo-5H-thiazolo[3,2-a]pyrimidin-7-yl)methyl)benzonitrile] | 1800 | 148 | 
CCN(Cc1cc(=O)n2c(C(O)CCO)c(C)sc2n1)c1ccc(F)cc1 (single isomer, unassigned) [Example 12.3, 3-(1,3-dihydroxypropyl)-7-[(N-ethyl-4-fluoro-anilino)methyl]-2-methyl-thiazolo[3,2-a]pyrimidin-5-one] | 1600 | 183 | 
CNC(=S)c1c(C)sc2nc(COc3ccc(F)cc3)cc(=O)n12 [Example 1.17, 7-(4-Fluorophenoxymethyl)-N,2-dimethyl-5-oxo-5H-[1,3]thiazolo[3,2-a]pyrimidine-3-carbothioamide] | 4000 | 68.6 | 
CCNC(=O)c1c(C)sc2nc(Cn3nc(C(F)(F)F)cc3Cl)cc(=O)n12 [compound 28, 7-[[5-Chloro-3-(trifluoromethyl)-1H-pyrazol-1-yl]methyl]-N-ethyl-2-methyl-5-oxo-5H-[1,3]thiazolo[3,2-a]pyrimidine-3-carboxamide] |  |  | 388
